Measured values: PubChem BioAssay (NCI)
Several values for one entry are separate records, joined by “and”; a condition that tells them apart may be missing. Identical values can stand only once.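 96-well plates; 48 h exposure; 5 concentrations. Endpoints by linear interpolation between flanking doses. Not reached: highest tested concentration assigned. GI50 is the concentration that inhibits growth by half. The concentration for full growth arrest is given as TGI.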

Legend:
Test in all cases: NCI tumour cell line growth inhibition, 48 h
U251 CNS = test system: U251 CNS
MDA-MB-435 = test system: MDA-MB-435
A498 renal = test system: A498 renal
SW-620 colon = test system: SW-620 colon
MCF7 breast = test system: MCF7 breast
OVCAR-8 ovarian = test system: OVCAR-8 ovarian
HCT-15 colon = test system: HCT-15 colon
SF-268 CNS = test system: SF-268 CNS
SNB-75 CNS = test system: SNB-75 CNS
PC-3 prostate = test system: PC-3 prostate

COc1ccc(-n2cc(-c3cc(OC)c(OC)c(OC)c3)nc2SCc2ccccc2)cc1OC
GI50 (U251 CNS): 50 µM | TGI (U251 CNS): > 100 µM | GI50 (MDA-MB-435): > 100 µM | TGI (MDA-MB-435): > 100 µM | GI50 (A498 renal): > 100 µM | TGI (A498 renal): > 100 µM | GI50 (SW-620 colon): > 100 µM | TGI (SW-620 colon): > 100 µM | GI50 (MCF7 breast): 34.6 µM | TGI (MCF7 breast): > 100 µM | GI50 (OVCAR-8 ovarian): > 83.6 µM | TGI (OVCAR-8 ovarian): > 100 µM | GI50 (HCT-15 colon): 33.3 µM | TGI (HCT-15 colon): > 100 µM | GI50 (SF-268 CNS): > 100 µM | TGI (SF-268 CNS): > 100 µM | GI50 (SNB-75 CNS): 34.4 µM | TGI (SNB-75 CNS): > 100 µM | GI50 (PC-3 prostate): 15.3 µM | TGI (PC-3 prostate): > 100 µM

O=c1[nH]c(=O)c2cc(C3CC(O)C(CO)O3)ccc2[nH]1 (stereo not given)
GI50 (U251 CNS): > 100 µM | TGI (U251 CNS): > 100 µM | GI50 (MDA-MB-435): > 100 µM | TGI (MDA-MB-435): > 100 µM | GI50 (A498 renal): > 100 µM | TGI (A498 renal): > 100 µM | GI50 (SW-620 colon): > 100 µM | TGI (SW-620 colon): > 100 µM | GI50 (MCF7 breast): > 100 µM | TGI (MCF7 breast): > 100 µM | GI50 (OVCAR-8 ovarian): > 100 µM | TGI (OVCAR-8 ovarian): > 100 µM | GI50 (HCT-15 colon): 93.3 µM | TGI (HCT-15 colon): > 100 µM | GI50 (SF-268 CNS): > 100 µM | TGI (SF-268 CNS): > 100 µM | GI50 (SNB-75 CNS): 26.8 µM | TGI (SNB-75 CNS): > 100 µM | GI50 (PC-3 prostate): > 100 µM | TGI (PC-3 prostate): > 100 µM

CNC(=O)CC1NC(=O)c2csc(n2)-c2ccc(-c3nc(C4=NC(C(=O)N5CCCC5C(N)=O)CO4)cs3)nc2-c2csc(n2)-c2csc(n2)C(C(C)C)NC(=O)CNC(=O)c2csc(n2)C(C(C)C)NC(=O)c2nc1sc2C (stereo not given)
GI50 (U251 CNS): > 25 µM | TGI (U251 CNS): > 25 µM | GI50 (MDA-MB-435): < 0.001 µM | GI50 (A498 renal): > 25 µM | TGI (A498 renal): 5.08 µM and > 25 µM | GI50 (SW-620 colon): > 25 µM | TGI (SW-620 colon): > 25 µM | GI50 (MCF7 breast): < 0.001 µM | GI50 (OVCAR-8 ovarian): > 25 µM | TGI (OVCAR-8 ovarian): > 25 µM | GI50 (HCT-15 colon): > 25 µM | TGI (HCT-15 colon): > 25 µM | GI50 (SF-268 CNS): > 25 µM | TGI (SF-268 CNS): > 25 µM | GI50 (SNB-75 CNS): > 25 µM

COC(=O)NN=C1C(C)(C)C(=O)C1(C)C
TGI (U251 CNS): > 100 µM | TGI (A498 renal): > 100 µM | TGI (SW-620 colon): > 100 µM | TGI (OVCAR-8 ovarian): > 100 µM | TGI (SF-268 CNS): > 100 µM | TGI (SNB-75 CNS): > 100 µM

CN1CC[C@]2(C)c3cc(O)ccc3CC3CCCC1C32C (stereo not given in full)
TGI (U251 CNS): > 100 µM | TGI (A498 renal): > 100 µM | TGI (SW-620 colon): > 100 µM | TGI (OVCAR-8 ovarian): > 100 µM | TGI (HCT-15 colon): > 100 µM | TGI (SF-268 CNS): > 100 µM | TGI (SNB-75 CNS): > 100 µM

O=C(O)CCC(NC(=O)c1ccccc1)C(=O)O (stereo not given)
TGI (U251 CNS): > 100 µM | TGI (A498 renal): > 100 µM | TGI (SW-620 colon): > 100 µM | TGI (OVCAR-8 ovarian): > 100 µM | TGI (HCT-15 colon): > 100 µM | TGI (SF-268 CNS): > 100 µM | TGI (SNB-75 CNS): > 100 µM

Cn1ccc2c(C(=O)c3ccccc3)cccc2c1=O
TGI (SW-620 colon): > 100 µM | TGI (OVCAR-8 ovarian): > 100 µM | TGI (HCT-15 colon): > 100 µM | TGI (SF-268 CNS): > 100 µM | TGI (SNB-75 CNS): 72.3 µM

Oc1ccccc1C=Nc1nc(SCc2ccccc2)nc2[nH]ncc12
GI50 (U251 CNS): 46.4 µM | TGI (U251 CNS): > 100 µM | GI50 (MDA-MB-435): 35.8 µM | TGI (MDA-MB-435): > 100 µM | GI50 (SW-620 colon): 40 µM | TGI (SW-620 colon): > 100 µM | GI50 (MCF7 breast): 39.1 µM | TGI (MCF7 breast): > 100 µM | GI50 (OVCAR-8 ovarian): 46.8 µM | TGI (OVCAR-8 ovarian): > 100 µM | GI50 (HCT-15 colon): > 100 µM | TGI (HCT-15 colon): > 100 µM | GI50 (SF-268 CNS): 28.2 µM | TGI (SF-268 CNS): > 100 µM | GI50 (SNB-75 CNS): > 100 µM | TGI (SNB-75 CNS): > 100 µM | GI50 (PC-3 prostate): 37.2 µM | TGI (PC-3 prostate): > 100 µM

COc1ccc(/C(=N\O)c2cc(C)c(OC)c(C)c2)cc1O
GI50 (U251 CNS): < 0.01 µM | TGI (U251 CNS): > 100 µM | GI50 (MDA-MB-435): < 0.01 µM | GI50 (SW-620 colon): < 0.01 µM | TGI (SW-620 colon): > 100 µM | GI50 (MCF7 breast): < 0.01 µM | TGI (MCF7 breast): > 100 µM | GI50 (OVCAR-8 ovarian): 0.0352 µM | TGI (OVCAR-8 ovarian): 71.6 µM | GI50 (HCT-15 colon): < 0.01 µM | TGI (HCT-15 colon): > 100 µM | GI50 (SF-268 CNS): 0.0222 µM | TGI (SF-268 CNS): > 100 µM | GI50 (PC-3 prostate): < 0.01 µM | TGI (PC-3 prostate): > 100 µM

O=Cc1ccccc1B(O)O
TGI (U251 CNS): > 100 µM | TGI (MDA-MB-435): > 100 µM | TGI (SW-620 colon): > 100 µM | TGI (MCF7 breast): > 100 µM | TGI (OVCAR-8 ovarian): > 100 µM | TGI (HCT-15 colon): > 100 µM | TGI (SF-268 CNS): > 100 µM | TGI (SNB-75 CNS): > 100 µM | TGI (PC-3 prostate): > 100 µM

O=C1CCCC(=O)N1CCc1c[nH]c2ccccc12
TGI (U251 CNS): > 100 µM | TGI (A498 renal): > 100 µM | TGI (SW-620 colon): > 100 µM | TGI (OVCAR-8 ovarian): > 100 µM | TGI (SF-268 CNS): > 100 µM | TGI (SNB-75 CNS): > 100 µM

COc1cc(C(O)C(=O)c2nc3ccc([N+](=O)[O-])cc3[nH]c2=O)ccc1O (stereo not given)
TGI (U251 CNS): > 100 µM | TGI (A498 renal): 97 µM | TGI (SW-620 colon): > 100 µM | TGI (OVCAR-8 ovarian): > 100 µM | TGI (HCT-15 colon): > 100 µM | TGI (SF-268 CNS): > 100 µM

C[C@]12CCC(=O)C(O)=C1CC[C@@H]1C2CC[C@]2(C)Nc3c(cnn3-c3ccccc3)CC12 (stereo not given in full)
TGI (U251 CNS): > 100 µM | TGI (A498 renal): > 100 µM | TGI (SW-620 colon): > 100 µM | TGI (OVCAR-8 ovarian): > 100 µM | TGI (HCT-15 colon): > 100 µM | TGI (SNB-75 CNS): > 100 µM

Fc1ccccc1C1SCc2nc3ccccc3n21 (stereo not given)
TGI (A498 renal): > 100 µM | TGI (SW-620 colon): > 100 µM | TGI (OVCAR-8 ovarian): > 100 µM | TGI (SF-268 CNS): > 100 µM | TGI (SNB-75 CNS): > 100 µM

CC1=NN(C(=O)CC(=O)NC(=O)CC(=O)Nc2ccccc2F)C(=O)C1N=Nc1ccc([N+](=O)[O-])cc1 (stereo not given)
TGI (U251 CNS): 50 µM | TGI (A498 renal): 94.8 µM | TGI (SW-620 colon): 41.1 µM | TGI (OVCAR-8 ovarian): > 100 µM | TGI (HCT-15 colon): > 100 µM | TGI (SF-268 CNS): > 100 µM | TGI (SNB-75 CNS): 98.2 µM

Clc1ccc2nnnn2n1
GI50 (U251 CNS): 3.97 µM | TGI (U251 CNS): 22.7 µM | GI50 (MDA-MB-435): 2.13 µM | TGI (MDA-MB-435): 5.39 µM | GI50 (A498 renal): 15.1 µM | TGI (A498 renal): 54.9 µM | GI50 (SW-620 colon): 3.88 µM | TGI (SW-620 colon): 22 µM | GI50 (MCF7 breast): 3.11 µM | TGI (MCF7 breast): 14.3 µM | GI50 (OVCAR-8 ovarian): 5.22 µM | TGI (OVCAR-8 ovarian): > 100 µM | GI50 (HCT-15 colon): 4.01 µM | TGI (HCT-15 colon): > 100 µM | GI50 (SF-268 CNS): 3.74 µM | TGI (SF-268 CNS): 37.2 µM | GI50 (SNB-75 CNS): 4.07 µM | TGI (SNB-75 CNS): > 100 µM

O=C1C2C=CC(C2)C(c2ccc(O)cc2)N1O (stereo not given)
TGI (U251 CNS): > 100 µM | TGI (A498 renal): > 100 µM | TGI (SW-620 colon): > 100 µM | TGI (OVCAR-8 ovarian): > 100 µM | TGI (SF-268 CNS): > 100 µM | TGI (SNB-75 CNS): > 100 µM

S=c1ssc(Oc2ccccc2)c1Cl
GI50 (U251 CNS): 7.06 µM | TGI (U251 CNS): 26.4 µM | GI50 (MDA-MB-435): 14.2 µM | TGI (MDA-MB-435): 27.2 µM | GI50 (SW-620 colon): 1.9 µM | TGI (SW-620 colon): 5.24 µM | GI50 (OVCAR-8 ovarian): 29.5 µM | TGI (OVCAR-8 ovarian): 62.4 µM | GI50 (HCT-15 colon): 7.76 µM | TGI (HCT-15 colon): 22.6 µM | GI50 (SF-268 CNS): 13.3 µM | TGI (SF-268 CNS): 26.1 µM | GI50 (SNB-75 CNS): 18 µM | TGI (SNB-75 CNS): 45 µM | GI50 (PC-3 prostate): 10.2 µM | TGI (PC-3 prostate): 23.9 µM

COc1cc(-n2cc(-c3ccc(Cl)cc3)nc2SCc2cccc(C#N)c2)cc(OC)c1OC
GI50 (U251 CNS): 44.1 µM | TGI (U251 CNS): > 100 µM | GI50 (MDA-MB-435): 82.9 µM | TGI (MDA-MB-435): > 100 µM | GI50 (A498 renal): 33.3 µM | TGI (A498 renal): > 100 µM | GI50 (SW-620 colon): 91.5 µM | TGI (SW-620 colon): > 100 µM | GI50 (MCF7 breast): 51.3 µM | TGI (MCF7 breast): > 100 µM | GI50 (HCT-15 colon): > 100 µM | TGI (HCT-15 colon): > 100 µM | GI50 (SF-268 CNS): 39.4 µM | TGI (SF-268 CNS): > 100 µM | GI50 (SNB-75 CNS): 0.433 µM | TGI (SNB-75 CNS): 9.77 µM | GI50 (PC-3 prostate): 30.4 µM | TGI (PC-3 prostate): > 100 µM
